From the kinase profiling compilation of Christmann-Franck et al. (2016)

Assays:
Assay in all cases: KINOMEscan competition binding
Details in all cases: compound 10.0 µM
CDC42BPB (human) = CDC42BPB (human) (UniProt Q9Y5S2)
MAPK10 (human) = MAPK10 (human) (UniProt P53779)
GRK4 (human) = GRK4 (human) (UniProt P32298)
NTRK1 (human) = NTRK1 (human) (UniProt P04629)
CDK18 (human) = CDK18 (human) (UniProt Q07002)
NEK11 (human) = NEK11 (human) (UniProt Q8NG66)
CaMK1 (human) = CaMK1 (human) (UniProt Q14012)
BRSK1 (human) = BRSK1 (human) (UniProt Q8TDC3)
TNK1 (human) = TNK1 (human) (UniProt Q13470)
Chain of TNK1 (human) (Q13470 whole entry, looked up): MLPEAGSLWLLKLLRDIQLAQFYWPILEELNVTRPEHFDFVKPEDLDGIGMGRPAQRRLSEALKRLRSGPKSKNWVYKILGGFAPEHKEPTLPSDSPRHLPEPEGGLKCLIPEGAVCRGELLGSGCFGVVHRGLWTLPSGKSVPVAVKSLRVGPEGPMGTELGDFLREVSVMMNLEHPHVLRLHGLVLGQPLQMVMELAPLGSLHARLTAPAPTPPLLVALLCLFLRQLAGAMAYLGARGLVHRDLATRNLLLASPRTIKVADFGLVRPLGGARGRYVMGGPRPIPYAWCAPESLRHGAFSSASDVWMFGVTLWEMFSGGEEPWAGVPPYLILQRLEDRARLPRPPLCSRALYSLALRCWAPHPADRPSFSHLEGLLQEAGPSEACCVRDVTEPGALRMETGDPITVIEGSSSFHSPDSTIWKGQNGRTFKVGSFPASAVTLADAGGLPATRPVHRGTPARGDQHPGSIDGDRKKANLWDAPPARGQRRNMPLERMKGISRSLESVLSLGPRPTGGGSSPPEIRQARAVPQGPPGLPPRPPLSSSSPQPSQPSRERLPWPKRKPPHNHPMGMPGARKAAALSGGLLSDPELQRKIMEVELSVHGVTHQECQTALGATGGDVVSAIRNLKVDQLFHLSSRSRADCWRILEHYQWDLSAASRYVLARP

ICK (human) = ICK (human) (UniProt Q9UPZ9)
MAP4K1 (human) = MAP4K1 (human) (UniProt Q92918)
[1] = tested on: MET (human), P08581 [Y1235D]
PRKD2 (human) = PRKD2 (human) (UniProt Q9BZL6)
MAP3K2 (human) = MAP3K2 (human) (UniProt Q9Y2U5)
Chain of MAP3K2 (human) (Q9Y2U5 whole entry, looked up): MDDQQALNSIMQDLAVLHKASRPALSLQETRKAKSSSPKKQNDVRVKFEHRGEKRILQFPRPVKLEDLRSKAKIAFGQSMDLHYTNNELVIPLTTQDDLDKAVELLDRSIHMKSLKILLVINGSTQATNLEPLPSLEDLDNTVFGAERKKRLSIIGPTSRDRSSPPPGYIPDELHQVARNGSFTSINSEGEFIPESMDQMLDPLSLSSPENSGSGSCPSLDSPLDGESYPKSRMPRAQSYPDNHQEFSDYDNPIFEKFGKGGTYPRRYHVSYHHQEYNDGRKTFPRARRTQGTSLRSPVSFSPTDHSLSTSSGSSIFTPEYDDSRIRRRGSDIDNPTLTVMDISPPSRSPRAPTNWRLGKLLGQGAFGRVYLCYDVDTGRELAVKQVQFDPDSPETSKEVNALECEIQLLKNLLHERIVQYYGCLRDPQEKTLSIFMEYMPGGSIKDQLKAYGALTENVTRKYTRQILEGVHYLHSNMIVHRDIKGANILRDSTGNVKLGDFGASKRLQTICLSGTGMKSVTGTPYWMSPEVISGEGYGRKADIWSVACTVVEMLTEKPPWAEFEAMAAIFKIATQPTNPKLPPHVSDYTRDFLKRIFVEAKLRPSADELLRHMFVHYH

BMPR1B (human) = BMPR1B (human) (UniProt O00238)
ADCK3 (human) = ADCK3 (human) (UniProt Q8NI60)
MAPK15 (human) = MAPK15 (human) (UniProt Q8TD08)
Chain of MAPK15 (human) (Q8TD08 whole entry, looked up): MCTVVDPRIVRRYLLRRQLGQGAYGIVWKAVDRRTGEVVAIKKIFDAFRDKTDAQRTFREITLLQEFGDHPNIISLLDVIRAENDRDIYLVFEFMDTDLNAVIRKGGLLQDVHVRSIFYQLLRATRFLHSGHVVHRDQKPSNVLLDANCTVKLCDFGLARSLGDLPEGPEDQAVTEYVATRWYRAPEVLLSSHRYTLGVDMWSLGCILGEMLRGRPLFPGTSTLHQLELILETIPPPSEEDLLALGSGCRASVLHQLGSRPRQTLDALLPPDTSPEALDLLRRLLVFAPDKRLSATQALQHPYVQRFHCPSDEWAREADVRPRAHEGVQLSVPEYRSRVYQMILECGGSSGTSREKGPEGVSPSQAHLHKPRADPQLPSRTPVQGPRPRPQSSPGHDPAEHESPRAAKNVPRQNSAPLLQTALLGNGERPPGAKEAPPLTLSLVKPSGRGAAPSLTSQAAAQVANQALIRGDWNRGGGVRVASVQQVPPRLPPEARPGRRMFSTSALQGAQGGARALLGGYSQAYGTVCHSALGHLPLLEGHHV

FGFR4 (human) = FGFR4 (human) (UniProt P22455)
CDK17 (human) = CDK17 (human) (UniProt Q00537)
PKN3 (M.tuberculosis) = PKN3 (M.tuberculosis) (UniProt Q6P5Z2)
EPHB4 (human) = EPHB4 (human) (UniProt P54760)
PRKG1 (human) = PRKG1 (human) (UniProt Q13976)
NEK7 (human) = NEK7 (human) (UniProt Q8TDX7)
CAMKK1 (human) = CAMKK1 (human) (UniProt Q8N5S9)
Chain of CAMKK1 (human) (Q8N5S9 whole entry, looked up): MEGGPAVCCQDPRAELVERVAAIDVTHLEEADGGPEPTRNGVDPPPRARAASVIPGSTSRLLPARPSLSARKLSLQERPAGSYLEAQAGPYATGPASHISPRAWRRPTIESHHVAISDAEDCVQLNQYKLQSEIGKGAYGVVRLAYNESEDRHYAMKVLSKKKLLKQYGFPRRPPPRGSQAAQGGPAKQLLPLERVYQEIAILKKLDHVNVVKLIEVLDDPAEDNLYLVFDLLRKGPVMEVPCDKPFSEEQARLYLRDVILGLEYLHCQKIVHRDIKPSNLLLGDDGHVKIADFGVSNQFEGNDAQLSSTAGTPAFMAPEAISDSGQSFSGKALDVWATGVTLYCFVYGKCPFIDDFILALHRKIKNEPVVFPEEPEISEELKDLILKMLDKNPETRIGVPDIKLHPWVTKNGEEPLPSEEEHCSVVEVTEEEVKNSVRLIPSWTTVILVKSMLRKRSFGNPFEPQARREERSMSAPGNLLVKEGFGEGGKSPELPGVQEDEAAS

ROCK1 (human) = ROCK1 (human) (UniProt Q13464)
RPS6KA1 KD1 (human) = RPS6KA1 KD1 (human) (UniProt Q15418)
MYO3A (human) = MYO3A (human) (UniProt Q8NEV4)
AURKC (human) = AURKC (human) (UniProt Q9UQB9)
[2] = tested on: RET (human), P07949 [M918T]
RPS6KA5 KD1 (human) = RPS6KA5 KD1 (human) (UniProt O75582)
MARK1 (human) = MARK1 (human) (UniProt Q9P0L2)
MAPK3 (human) = MAPK3 (human) (UniProt P27361)
CDK4 CCND1 (human) = CDK4 CCND1 (human) (UniProt P11802+P24385)
LTK (human) = LTK (human) (UniProt P29376)
TEK (human) = TEK (human) (UniProt Q02763)
TLK1 (human) = TLK1 (human) (UniProt Q9UKI8)
PAK6 (human) = PAK6 (human) (UniProt Q9NQU5)
SRPK1 (human) = SRPK1 (human) (UniProt Q96SB4)
CSK (human) = CSK (human) (UniProt P41240)
TBK1 (human) = TBK1 (human) (UniProt Q9UHD2)

Chain of CDC42BPB (human) (Q9Y5S2 whole entry, looked up): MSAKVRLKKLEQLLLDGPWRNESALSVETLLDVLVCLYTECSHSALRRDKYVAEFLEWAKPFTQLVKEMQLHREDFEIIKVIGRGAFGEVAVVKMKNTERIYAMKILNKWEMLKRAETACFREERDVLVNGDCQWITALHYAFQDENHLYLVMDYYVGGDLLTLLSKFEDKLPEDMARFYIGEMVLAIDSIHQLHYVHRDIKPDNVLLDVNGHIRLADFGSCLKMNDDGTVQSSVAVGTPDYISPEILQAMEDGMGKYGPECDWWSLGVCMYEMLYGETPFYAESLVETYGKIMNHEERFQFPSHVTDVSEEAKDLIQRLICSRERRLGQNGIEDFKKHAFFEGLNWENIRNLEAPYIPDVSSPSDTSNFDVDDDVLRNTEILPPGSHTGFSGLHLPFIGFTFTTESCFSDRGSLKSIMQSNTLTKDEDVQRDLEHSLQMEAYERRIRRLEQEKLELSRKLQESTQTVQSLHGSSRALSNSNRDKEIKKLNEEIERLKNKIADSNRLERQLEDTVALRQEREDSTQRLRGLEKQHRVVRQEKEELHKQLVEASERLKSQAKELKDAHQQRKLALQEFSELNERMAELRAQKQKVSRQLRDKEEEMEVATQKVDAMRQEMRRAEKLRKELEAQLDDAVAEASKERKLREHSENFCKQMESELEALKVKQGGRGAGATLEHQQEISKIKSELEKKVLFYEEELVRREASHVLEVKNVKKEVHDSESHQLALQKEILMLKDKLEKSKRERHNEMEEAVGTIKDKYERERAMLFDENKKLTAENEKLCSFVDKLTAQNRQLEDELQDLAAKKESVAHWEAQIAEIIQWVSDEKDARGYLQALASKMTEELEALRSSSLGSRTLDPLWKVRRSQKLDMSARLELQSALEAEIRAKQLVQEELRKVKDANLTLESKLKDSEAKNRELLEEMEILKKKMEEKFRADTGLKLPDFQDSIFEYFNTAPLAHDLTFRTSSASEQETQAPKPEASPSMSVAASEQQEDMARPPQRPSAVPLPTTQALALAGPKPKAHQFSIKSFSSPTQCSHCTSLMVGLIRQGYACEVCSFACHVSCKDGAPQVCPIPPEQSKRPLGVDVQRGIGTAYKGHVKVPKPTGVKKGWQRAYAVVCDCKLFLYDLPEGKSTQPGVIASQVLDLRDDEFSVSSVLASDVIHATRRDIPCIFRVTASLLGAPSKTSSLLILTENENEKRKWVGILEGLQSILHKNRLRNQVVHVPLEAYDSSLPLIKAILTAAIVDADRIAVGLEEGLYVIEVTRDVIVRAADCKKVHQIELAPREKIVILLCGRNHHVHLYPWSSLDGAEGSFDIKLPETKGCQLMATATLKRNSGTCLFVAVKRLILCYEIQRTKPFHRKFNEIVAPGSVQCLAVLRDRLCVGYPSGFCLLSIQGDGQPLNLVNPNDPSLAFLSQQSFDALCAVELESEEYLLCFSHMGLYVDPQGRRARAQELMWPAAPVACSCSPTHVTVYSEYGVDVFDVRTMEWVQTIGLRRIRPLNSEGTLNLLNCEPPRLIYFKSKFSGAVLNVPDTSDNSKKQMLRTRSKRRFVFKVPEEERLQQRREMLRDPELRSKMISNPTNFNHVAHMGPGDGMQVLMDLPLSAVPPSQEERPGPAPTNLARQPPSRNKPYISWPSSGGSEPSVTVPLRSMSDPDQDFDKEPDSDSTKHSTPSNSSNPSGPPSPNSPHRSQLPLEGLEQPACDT
Chain of CDK18 (human) (Q07002 whole entry, looked up): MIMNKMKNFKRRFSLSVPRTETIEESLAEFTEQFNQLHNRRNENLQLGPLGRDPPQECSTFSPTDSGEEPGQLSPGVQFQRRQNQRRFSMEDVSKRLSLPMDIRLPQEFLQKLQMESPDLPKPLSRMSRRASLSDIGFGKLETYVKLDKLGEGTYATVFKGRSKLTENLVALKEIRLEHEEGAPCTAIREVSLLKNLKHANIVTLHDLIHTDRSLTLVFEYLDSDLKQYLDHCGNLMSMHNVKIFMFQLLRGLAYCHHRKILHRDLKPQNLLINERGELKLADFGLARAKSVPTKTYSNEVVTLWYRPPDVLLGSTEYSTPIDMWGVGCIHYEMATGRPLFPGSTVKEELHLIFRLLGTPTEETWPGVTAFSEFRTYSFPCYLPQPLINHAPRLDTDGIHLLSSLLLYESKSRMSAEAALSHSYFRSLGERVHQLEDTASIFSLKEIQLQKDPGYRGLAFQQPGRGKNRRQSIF
Chain of MAPK10 (human) (P53779 whole entry, looked up): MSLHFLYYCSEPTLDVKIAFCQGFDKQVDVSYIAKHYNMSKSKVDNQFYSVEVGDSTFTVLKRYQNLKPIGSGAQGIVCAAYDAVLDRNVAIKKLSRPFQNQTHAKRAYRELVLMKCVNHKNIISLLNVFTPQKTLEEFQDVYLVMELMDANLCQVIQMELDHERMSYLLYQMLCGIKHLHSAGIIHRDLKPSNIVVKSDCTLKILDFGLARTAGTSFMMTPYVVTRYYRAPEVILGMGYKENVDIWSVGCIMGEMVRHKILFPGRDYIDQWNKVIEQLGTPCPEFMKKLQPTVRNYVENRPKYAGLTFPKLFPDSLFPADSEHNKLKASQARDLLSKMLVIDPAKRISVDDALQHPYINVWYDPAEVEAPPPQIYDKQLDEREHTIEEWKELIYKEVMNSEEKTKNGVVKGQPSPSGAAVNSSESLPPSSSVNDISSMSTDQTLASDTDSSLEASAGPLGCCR

COCC(=O)NC/C=C/c1ccc2ncnc(Nc3ccc(Oc4ccc(C)nc4)c(C)c3)c2c1
kinase still bound, per cent of control (CDC42BPB (human)): 96% | kinase still bound, per cent of control (MAPK10 (human)): 68% | kinase still bound, per cent of control (GRK4 (human)): 100% | kinase still bound, per cent of control (NTRK1 (human)): 89% | kinase still bound, per cent of control (CDK18 (human)): 99% | kinase still bound, per cent of control (NEK11 (human)): 100% | kinase still bound, per cent of control (CaMK1 (human)): 72% | kinase still bound, per cent of control (BRSK1 (human)): 100% | kinase still bound, per cent of control (TNK1 (human)): 86% | kinase still bound, per cent of control (ICK (human)): 100% | kinase still bound, per cent of control (MAP4K1 (human)): 91% | kinase still bound, per cent of control [1]: 81% | kinase still bound, per cent of control (PRKD2 (human)): 97% | kinase still bound, per cent of control (MAP3K2 (human)): 100% | kinase still bound, per cent of control (BMPR1B (human)): 74% | kinase still bound, per cent of control (ADCK3 (human)): 100% | kinase still bound, per cent of control (MAPK15 (human)): 100% | kinase still bound, per cent of control (FGFR4 (human)): 100% | kinase still bound, per cent of control (CDK17 (human)): 100% | kinase still bound, per cent of control (PKN3 (M.tuberculosis)): 23% | kinase still bound, per cent of control (EPHB4 (human)): 95% | kinase still bound, per cent of control (PRKG1 (human)): 100% | kinase still bound, per cent of control (NEK7 (human)): 73% | kinase still bound, per cent of control (CAMKK1 (human)): 96% | kinase still bound, per cent of control (ROCK1 (human)): 100% | kinase still bound, per cent of control (RPS6KA1 KD1 (human)): 100% | kinase still bound, per cent of control (MYO3A (human)): 75% | kinase still bound, per cent of control (AURKC (human)): 67% | kinase still bound, per cent of control [2]: 77% | kinase still bound, per cent of control (RPS6KA5 KD1 (human)): 99% | kinase still bound, per cent of control (MARK1 (human)): 100% | kinase still bound, per cent of control (MAPK3 (human)): 95% | kinase still bound, per cent of control (CDK4 CCND1 (human)): 100% | kinase still bound, per cent of control (LTK (human)): 88% | kinase still bound, per cent of control (TEK (human)): 100% | kinase still bound, per cent of control (TLK1 (human)): 79% | kinase still bound, per cent of control (PAK6 (human)): 89% | kinase still bound, per cent of control (SRPK1 (human)): 100% | kinase still bound, per cent of control (CSK (human)): 59% | kinase still bound, per cent of control (TBK1 (human)): 90%
